{
  "source": "patent US20250368682A1",
  "about": "“NOVEL POLYPEPTIDE COMPOSITION FOR INTRACELLULAR TRANSFECTION” (AZOTHBIO INC., priority 2022, published 2025)",
  "type_in_all_cases": "cell-based",
  "key": {"Jurkat T cells [1]": {"test_system": "Jurkat T cells", "assay": "pEGFP-N3 plasmid DNA delivery, GFP expression by immunoblotting", "conditions": "for GFP expression depending on copy number of NLS: 2, 3 or 4 copies of NLS after 10 leucines; for plasmid DNA delivery efficiency depending on leucine length: 10 or 11 leucines with 2×NLS, same experiment as Example 1-1", "experimental": "Specific sequences thereof are shown in Table 2 below (Peptides 1 to 10). Each of the above peptides at a concentration of 4 μM was mixed with 2 μg of pEGFP-N3 plasmid for 30 minutes in a CO2 incubator at 37° C. After transfection of the plasmids into Jurkat T cells for 30 minutes, the expression of GFP was analyzed by immunoblotting after 24 hours (FIG. 1).\nPeptides containing 10 or 11 leucine amino acids and 2×NLS linked thereto were prepared (Peptides 1 and 11), and based on these peptides, the effect of the number of leucine amino acids on the transmission level was further determined. Each of the above peptides was subjected to the same experiment as in Example 1-1, and then the expression of GFP was analyzed by immunoblotting (FIG. 2).\nPeptides were prepared by varying the copy number of NLS, located following the 10 leucine amino acid sequences, to 2, 3, or 4, and specific sequences thereof are shown in Table 2 below (Peptides 1, 12, and 13). For each peptide, the change in GFP expression depending on the copy number of NLS was confirmed by immunoblotting (FIG. 3).\nAccordingly, the copy number of NLS was set to 2, and a peptide (L10-2×NLS) in which the NLS amino acid sequence was located at the C-terminus, following leucine, and a peptide (2×NLS-L10) in which the NLS amino acid sequence was located at the N-terminus, preceding leucine, were prepared. Each of the above peptides (Peptide 1 and 14) was mixed with pEGFP-N3 and transfected into Jurkat T cells. Then, the expression changes of GFP were compared.\nL10-2×NLS at different concentrations (2, 3, 4, 5, or 6 μM) was mixed with 2 μg of pEGFP-N3 and transfected into Jurkat T cells. The expression of GFP was then confirmed by immunoblotting (FIG. 5).\nNext, pEGFP-N3 at different concentrations (0, 0.25, 0.5, 1, 2, 4, 5, or 6 μg) was mixed with 4 μM of L10-2×NLS and transfected into Jurkat T cells. The expression of GFP was then confirmed by immunoblotting (FIG. 6).\nFirst, 4 μM L10-2×NLS and 2 μg pEGFP-N3 were mixed at 4, 16, 25, 37, or 42° C. for 30 minutes and transfected into Jurkat T cells for 30 minutes. […] (FIG. 7).\nThus, the temperature was set to 37° C., and 4 μM L10-2×NLS and 2 μg pEGFP-N3 were mixed for different times (10, 20, 30, 40, 50, or 60 minutes).\nFinally, in an experiment as to the buffer used for the mixing, 4 μM of L10-2×NLS and 2 μg of pEGFP-N3 were mixed with Opti-MEM, DPBS, or Serum free RPMI-1640 (SF) buffer, respectively.\nL10-2×NLS (4 μM) and pEGFP-N3 (2 μg) were mixed according to the above optimized conditions and transfected into Jurkat T cells for 0.5, 1, 2, 3, 4, or 5 hours to compare the changes in GFP expression over time (FIG. 10)."}, "Jurkat T cells [2]": {"test_system": "Jurkat T cells", "assay": "Cell morphology and viability (MTT assay) after transfection", "conditions": "4 μM L10-2×NLS, 2 μg pEGFP-N3, morphology after 24 hours", "experimental": "L10-2×NLS (4 μM) and pEGFP-N3 (2 μg) were mixed and transfected into Jurkat T cells, and changes in cell morphology after 24 hours were observed (FIG. 14). The cell viability after transfection was analyzed using MTT assay (FIG. 15)."}, "Jurkat T cells [3]": {"test_system": "Jurkat T cells", "assay": "Fluorescein-labeled plasmid DNA delivery efficiency by FACS", "conditions": "after 0.5 hours; 2 μg fluorescein-labeled plasmid DNA, 4 μM L10-2×NLS", "experimental": "Fluorescein-labeled plasmid DNA (Takara) (2 μg) was mixed with L10-2×NLS (4 μM) and transfected into Jurkat T cells for 0.5, 1, 2, 3, 4, or 5 hours. Then, the delivery efficiency of the plasmid DNA into Jurkat T cells was analyzed using Novocyte FACS (Agilent) (FIG. 16)."}, "Jurkat T cells [4]": {"test_system": "Jurkat T cells", "assay": "Location of fluorescein-labeled plasmid DNA by fluorescence microscope (Hoechst 33342)", "from_the_text": "Next, fluorescein-labeled plasmid DNA and L10-2×NLS were mixed and transfected into Jurkat T cells, followed by treatment with nucleus staining reagent Hoechst 33342 (ThermoFisher). The location of the plasmid DNA in Jurkat T cells was then confirmed using a fluorescence microscope (Leica) (FIG. 17), and the data were quantified and analyzed through graphical representation (FIG. 18)."}, "human primary T cells": {"test_system": "human primary T cells", "assay": "CAR plasmid DNA delivery, CAR expression by immunoblotting with FLAG antibody", "conditions": "4 μM L10-2×NLS, 2 μg FLAG-tagged CAR plasmid DNA, after 24 hours", "experimental": "L10-2×NLS (4 μM) and FLAG-tagged CAR plasmid DNA (2 μg) were mixed and transfected into human primary T cells. After 24 hours, CAR expression in the human primary CD8+ T cells was confirmed by immunoblotting using FLAG antibody (FIG. 19)."}, "Jurkat T cells [5]": {"test_system": "Jurkat T cells", "assay": "FITC-labeled IgG antibody delivery efficiency by FACS", "conditions": "L10-2×NLS 4 μM or higher, 1 μg FITC-labeled IgG, 2 hours", "experimental": "FITC-labeled IgG (Thermofisher) (1 μg) was mixed with L10-2×NLS at different concentrations (0.5, 1, 2, 4, or 6 μM). Each mixture was treated with Jurkat T cells for 2 hours, and then the antibody delivery efficiency to cells was confirmed using Novocyte FACS (Agilent) (FIG. 21), and the presence of the corresponding antibodies in cells was observed using a fluorescence microscope (Leica) (FIG. 22)."}},
  "data": [
    {"substance": "Ac-LLLLLLLLLLPKKKRKVPKKKRKV-NH2 [L10-2×NLS]", "values": [
      {"measurement": "transfection level compared to Lipofectamine", "setting": "Jurkat T cells [1]; 4 μM peptide, 2 μg pEGFP-N3, immunoblot after 24 hours", "result": "significantly higher level compared to Lipofectamine®"},
      {"measurement": "GFP expression depending on hydrophobic amino acid type", "setting": "Jurkat T cells [1]; 4 μM peptide, 2 μg pEGFP-N3, mixed 30 min at 37° C., transfection 30 min, immunoblot after 24 hours, among Peptides 1 to 10", "result": "highest GFP expression"},
      {"measurement": "GFP expression depending on copy number of NLS", "setting": "Jurkat T cells [1]", "result": "highest expression of GFP"},
      {"measurement": "plasmid DNA delivery efficiency depending on leucine length", "setting": "Jurkat T cells [1]", "result": "highest efficiency"},
      {"measurement": "transformation efficiency depending on N-terminal/C-terminal location of NLS", "setting": "Jurkat T cells [1]; L10-2×NLS compared with 2×NLS-L10", "result": "high efficiency"},
      {"measurement": "GFP expression depending on mixing buffer", "setting": "Jurkat T cells [1]; Opti-MEM, DPBS or Serum free RPMI-1640", "result": "transfection levels were maintained"},
      {"measurement": "GFP expression efficiency depending on pEGFP-N3 amount", "setting": "Jurkat T cells [1]; at 2 μg pEGFP-N3 (tested 0-6 μg), 4 μM L10-2×NLS", "result": "highest"},
      {"measurement": "GFP expression efficiency depending on L10-2×NLS concentration", "setting": "Jurkat T cells [1]; at 4 μM (tested 2, 3, 4, 5, 6 μM), 2 μg pEGFP-N3", "result": "highest expression efficiency of GFP"},
      {"measurement": "GFP expression depending on mixing temperature", "setting": "Jurkat T cells [1]; mixing at 37° C. (tested 4, 16, 25, 37, 42° C.) for 30 minutes", "result": "highest expression of GFP"},
      {"measurement": "GFP expression depending on mixing time", "setting": "Jurkat T cells [1]; mixing time 30 minutes (tested 10-60 minutes), 37° C.", "result": "highest expression level"},
      {"measurement": "GFP expression depending on transfection time", "setting": "Jurkat T cells [1]; transfection for 0.5 or 1 hour (tested 0.5-5 hours)", "result": "sufficient to deliver plasmid DNA"},
      {"measurement": "cell damage or cell death after transfection", "setting": "Jurkat T cells [2]", "result": "did not cause any damage or cell death"},
      {"measurement": "plasmid DNA delivery efficiency", "setting": "Jurkat T cells [3]", "result": "about 90%"},
      {"measurement": "plasmid DNA delivery to cells", "setting": "Jurkat T cells [4]; 1 hour after transfection", "result": "delivered to the majority of cells"},
      {"measurement": "plasmid DNA found in the nucleus, efficiency", "setting": "Jurkat T cells [4]; at 4 hours", "result": "approximately 40%"},
      {"measurement": "CAR expression in human primary CD8+ T cells", "setting": "human primary T cells", "result": "confirmed"},
      {"measurement": "antibody delivery efficiency", "setting": "Jurkat T cells [5]", "result": "approximately 90%"}
    ]},
    {"substance": "N′-LLLLLLLLLLLPKKKRKVPKKKRKV-C′ (Ac-LLLLLLLLLLLPKKKRKVPKKKRKV-NH2) [Peptide 11]", "values": [
      {"measurement": "plasmid DNA delivery efficiency depending on leucine length", "setting": "Jurkat T cells [1]", "result": "a certain level of high efficiency was maintained"}
    ]},
    {"substance": "N′-LLLLLLLLLLPKKKRKVPKKKRKVPKKKRKV-C′ (Ac-LLLLLLLLLLPKKKRKVPKKKRKVPKKKRKV-NH2) [Peptide 12]", "values": [
      {"measurement": "GFP expression depending on copy number of NLS", "setting": "Jurkat T cells [1]", "result": "maintained above a certain level"}
    ]},
    {"substance": "N′-LLLLLLLLLLPKKKRKVPKKKRKVPKKKRKVPKKKRKV-C′ (Ac-LLLLLLLLLLPKKKRKVPKKKRKVPKKKRKVPKKKRKV-NH2) [Peptide 13]", "values": [
      {"measurement": "GFP expression depending on copy number of NLS", "setting": "Jurkat T cells [1]", "result": "maintained above a certain level"}
    ]}
  ]
}
